Laboratory results taken from PMC8728441, “Biosynthesis of the redox cofactor mycofactocin is controlled by the transcriptional regulator MftR and induced by long-chain acyl-CoA species” (The Journal of Biological Chemistry, 2021).

Tests used:
MftR L120A = target: T1, MftR L120A (Mycolicibacterium smegmatis, UniProt A0QSB5, L120A); assay: ITC binding of oleoyl-CoA to MftR variant; design: species or system Mycobacterium smegmatis mc^2155
T1 sequence (A0QSB5 1-200 L120A): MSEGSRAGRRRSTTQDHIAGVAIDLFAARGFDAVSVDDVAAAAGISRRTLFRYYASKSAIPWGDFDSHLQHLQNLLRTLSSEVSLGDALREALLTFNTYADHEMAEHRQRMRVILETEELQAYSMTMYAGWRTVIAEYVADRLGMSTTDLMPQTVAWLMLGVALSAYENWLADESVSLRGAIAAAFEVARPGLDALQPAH

MftR L120R = MftR L120R (Mycolicibacterium smegmatis, UniProt A0QSB5, L120R); assay: ITC binding of oleoyl-CoA to MftR variant; design: species or system Mycobacterium smegmatis mc^2155
Description: (§1) Finally, we examined the effects of mutations at the interface of the DNA-binding and effector-binding domains. Here, residues Leu120 and Met127 were mutated to arginine and alanine, respectively, and the Kds for oleoyl-CoA and Omft were measured as described previously.
(§2) Mutant strand synthesis reactions were performed according to the Agilent QuikChange site-directed mutagenesis protocol. The mftR_pET28a plasmid was used as a template for site-directed mutagenesis studies. Sequence-verified plasmids were transformed into E. coli BL21(DE3) pLysS cells for protein production and purified using the same protocol as wildtype MftR.
(§3) ITC was performed using TA Nano ITC. MftR was loaded in the sample cell at the concentration of 16 and 250 μM acyl-CoAs (C12–C18) loaded in the syringe. To minimize the effect of buffer mismatch, the stock concentration of acyl-CoAs was prepared using ITC buffer (50 mM Hepes, 50 mM NaCl, and pH 7.5), and the pH was adjusted to within 0.05 units. In addition, MftR was buffer exchanged into ITC buffer using a PD-10 column (GE Life Sciences). The volume of the titrant added at each injection into the sample cell was 2.22 μl. The time interval between the successive injections was 180 s. The temperature of the cell was kept at 25 °C. […]

MftR M127A = MftR M127A (Mycolicibacterium smegmatis, UniProt A0QSB5, M127A); assay: ITC binding of oleoyl-CoA to MftR variant; design: species or system Mycobacterium smegmatis mc^2155
Description: as §1, §2, §3

MftR H68A–Omft complex = assay: Competitive EMSA with H68A mutant and oleoyl-CoA; assay type: binding, Mycobacterium smegmatis mc^2155; conditions: up to 100 μM oleoyl-CoA
Excerpt: (§4) Next, we examined which amino acid residues contribute to the interaction between MftR and oleoyl-CoA. The crystal structure of Msmeg MftR is currently unavailable; however, an unpublished structure of Rhodococcus jostii RHA1 MftR has been deposited in the Protein Data Bank (PDB) (PDB ID: 2RAE, 54% identical, Fig. S3). Using this structure, we employed SwissDock to model oleoyl-CoA bound to MftR (Fig. 5) ([41], [42]). From the docked structure, we identified eight conserved residues on MftR that were expected to create the acyl-binding pocket or bind CoA through electrostatic interactions. Following single amino acid replacements of the residues, we measured the Kd values of the mutant proteins to oleoyl-CoA using ITC. For the putative acyl-binding pocket residues Phe65, Phe96, and Ile114, mutations to alanine led to no or modest change to the Kd for oleoyl-CoA (Table 1). […] Conversely, when His68 was mutated to alanine, binding of oleoyl-CoA by the protein was undetectable. To validate this observation, competitive EMSAs were carried out using the H68A mutant. […] Thus, it is highly likely that His68 is an important residue for oleoyl-CoA binding. To evaluate residues that were expected to interact with CoA, Gln15, Asp16, Ser67, and Asp66 were targeted. Of these, mutants of Asp16 and Ser67 had the greatest effect (Table 1). […]

MftR D16R–Omft complex = assay: Competitive EMSA with D16R mutant and oleoyl-CoA; assay type: binding, Mycobacterium smegmatis mc^2155; conditions: up to 100 μM oleoyl-CoA
Excerpt: as §4

CCCCCCCC/C=C\CCCCCCCC(=O)SCCNC(=O)CCNC(=O)[C@H](O)C(C)(C)COP(=O)(O)OP(=O)(O)OC[C@H]1O[C@@H](n2cnc3c(N)ncnc32)[C@H](O)[C@@H]1OP(=O)(O)O [oleoyl-CoA]
Kd (MftR L120A): 5.2 ± 0.2 µM
Kd (MftR L120R): 6.2 ± 0.2 µM
Kd (MftR M127A): 4.8 ± 0.1 µM
release of Omft from H68A mutant (MftR H68A–Omft complex): remained bound to Omft
release of Omft from D16R mutant (MftR D16R–Omft complex): remained bound to Omft
